Results: PubChem BioAssay AID2060904 (Molecular Pharmacology Branch, DTP, NCI, 2025)

Test system: 349418-098-R-PDC complex spheroid viability
Test: Anticancer human tumor 349418-098-R-PDC patient-derived lung adenocarcinoma cell line growth inhibition [RAS]
Conditions: for IC50: curve of first compound; for viability, T/C: stronger effect = lower value
Summary of the method: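 Tumour cells grown as complex spheroids with HUVEC endothelial cells and mesenchymal stem cells, treated with RAS pathway inhibitor combinations. Each agent spans half-log steps from near clinical Cmax, or 10 microM where Cmax is unknown.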

[1] = second compound 0.000949 µM, first compound 0.0316 µM
[2] = second compound 0.000949 µM, first compound 0.1 µM
[3] = second compound 0.000949 µM, first compound 0.316 µM
[4] = second compound 0.000949 µM, first compound 1 µM
[5] = second compound 0.000949 µM, first compound 3.16 µM
[6] = second compound 0.000949 µM, first compound 10 µM
[7] = second compound 0.003 µM, first compound 0.0316 µM
[8] = second compound 0.003 µM, first compound 0.1 µM
[9] = second compound 0.003 µM, first compound 0.316 µM
[10] = second compound 0.003 µM, first compound 1 µM
[11] = second compound 0.003 µM, first compound 3.16 µM
[12] = second compound 0.003 µM, first compound 10 µM
[13] = second compound 0.00949 µM, first compound 0.0316 µM
[14] = second compound 0.00949 µM, first compound 0.1 µM
[15] = second compound 0.00949 µM, first compound 0.316 µM
[16] = second compound 0.00949 µM, first compound 1 µM
[17] = second compound 0.00949 µM, first compound 3.16 µM
[18] = second compound 0.00949 µM, first compound 10 µM
[19] = second compound 0.03 µM, first compound 0.0316 µM
[20] = second compound 0.03 µM, first compound 0.1 µM
[21] = second compound 0.03 µM, first compound 0.316 µM
[22] = second compound 0.03 µM, first compound 1 µM
[23] = second compound 0.03 µM, first compound 3.16 µM
[24] = second compound 0.03 µM, first compound 10 µM
[25] = second compound 0.0949 µM, first compound 0.0316 µM
[26] = second compound 0.0949 µM, first compound 0.1 µM
[27] = second compound 0.0949 µM, first compound 0.316 µM
[28] = second compound 0.0949 µM, first compound 1 µM
[29] = second compound 0.0949 µM, first compound 3.16 µM
[30] = second compound 0.0949 µM, first compound 10 µM
[31] = second compound 0.3 µM, first compound 0.0316 µM
[32] = second compound 0.3 µM, first compound 0.1 µM
[33] = second compound 0.3 µM, first compound 0.316 µM
[34] = second compound 0.3 µM, first compound 1 µM
[35] = second compound 0.3 µM, first compound 3.16 µM
[36] = second compound 0.3 µM, first compound 10 µM
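Note: spheroids exposed to compound for seven days before viability readout.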

SMILES: CC(C)NCC(C(=O)N1CCN(c2ncnc3c2C(C)CC3O)CC1)c1ccc(Cl)cc1 (stereo unspecified) + CCn1c(-c2cc(N3CCN(C)CC3)cnc2C(C)OC)c2c3cc(ccc31)-c1csc(n1)CC(NC(=O)C1CC1C)C(=O)N1CCCC(N1)C(=O)OCC(C)(C)C2
- IC50 (second compound 0.000949 µM): 843 nM
- IC50 (second compound 0.003 µM): 831 nM
- IC50 (second compound 0.00949 µM): 1150 nM
- IC50 (second compound 0.03 µM): 864 nM
- IC50 (second compound 0.0949 µM): 1190 nM
- IC50 (second compound 0.3 µM): 829 nM
- viability, T/C [1]: 97%
- viability, T/C [2]: 86.3%
- viability, T/C [3]: 71.5%
- viability, T/C [4]: 47.3%
- viability, T/C [5]: 23.5%
- viability, T/C [6]: 14.2%
- viability, T/C [7]: 117%
- viability, T/C [8]: 101%
- viability, T/C [9]: 70.2%
- viability, T/C [10]: 45.8%
- viability, T/C [11]: 28.4%
- viability, T/C [12]: 15.1%
- viability, T/C [13]: 110%
- viability, T/C [14]: 97.6%
- viability, T/C [15]: 78.9%
- viability, T/C [16]: 53%
- viability, T/C [17]: 29.3%
- viability, T/C [18]: 14.8%
- viability, T/C [19]: 113%
- viability, T/C [20]: 90.1%
- viability, T/C [21]: 61.3%
- viability, T/C [22]: 45.9%
- viability, T/C [23]: 34.6%
- viability, T/C [24]: 11.4%
- viability, T/C [25]: 108%
- viability, T/C [26]: 118%
- viability, T/C [27]: 90.3%
- viability, T/C [28]: 54.5%
- viability, T/C [29]: 25.4%
- viability, T/C [30]: 10.8%
- viability, T/C [31]: 113%
- viability, T/C [32]: 104%
- viability, T/C [33]: 76.4%
- viability, T/C [34]: 38.6%
- viability, T/C [35]: 36%
- viability, T/C [36]: 11.6%

SMILES: CC(C)n1nc(-c2ccc3oc(N)nc3c2)c2c(N)ncnc21 + CCn1c(-c2cc(N3CCN(C)CC3)cnc2C(C)OC)c2c3cc(ccc31)-c1csc(n1)CC(NC(=O)C1CC1C)C(=O)N1CCCC(N1)C(=O)OCC(C)(C)C2
- IC50 (second compound 0.000949 µM): 2.3 nM
- IC50 (second compound 0.003 µM): 3.06 nM
- IC50 (second compound 0.00949 µM): 2.79 nM
- IC50 (second compound 0.03 µM): 3.57 nM
- IC50 (second compound 0.0949 µM): 1.99 nM
- IC50 (second compound 0.3 µM): 3.49 nM
- viability, T/C (second compound 0.000949 µM, first compound 0.000316 µM): 97.9%
- viability, T/C (second compound 0.000949 µM, first compound 0.001 µM): 75.8%
- viability, T/C (second compound 0.000949 µM, first compound 0.00316 µM): 37.8%
- viability, T/C (second compound 0.000949 µM, first compound 0.01 µM): 22.4%
- viability, T/C [1]: 8.76%
- viability, T/C [2]: 7.18%
- viability, T/C (second compound 0.003 µM, first compound 0.000316 µM): 87%
- viability, T/C (second compound 0.003 µM, first compound 0.001 µM): 66.9%
- viability, T/C (second compound 0.003 µM, first compound 0.00316 µM): 54.9%
- viability, T/C (second compound 0.003 µM, first compound 0.01 µM): 18.6%
- viability, T/C [7]: 7.75%
- viability, T/C [8]: 6.04%
- viability, T/C (second compound 0.00949 µM, first compound 0.000316 µM): 106%
- viability, T/C (second compound 0.00949 µM, first compound 0.001 µM): 84.4%
- viability, T/C (second compound 0.00949 µM, first compound 0.00316 µM): 46.3%
- viability, T/C (second compound 0.00949 µM, first compound 0.01 µM): 16.6%
- viability, T/C [13]: 7.24%
- viability, T/C [14]: 5.27%
- viability, T/C (second compound 0.03 µM, first compound 0.000316 µM): 100%
- viability, T/C (second compound 0.03 µM, first compound 0.001 µM): 98.3%
- viability, T/C (second compound 0.03 µM, first compound 0.00316 µM): 54.4%
- viability, T/C (second compound 0.03 µM, first compound 0.01 µM): 11.8%
- viability, T/C [19]: 8.66%
- viability, T/C [20]: 6.68%
- viability, T/C (second compound 0.0949 µM, first compound 0.000316 µM): 111%
- viability, T/C (second compound 0.0949 µM, first compound 0.001 µM): 67.4%
- viability, T/C (second compound 0.0949 µM, first compound 0.00316 µM): 39.3%
- viability, T/C (second compound 0.0949 µM, first compound 0.01 µM): 18.7%
- viability, T/C [25]: 7.91%
- viability, T/C [26]: 5.64%
- viability, T/C (second compound 0.3 µM, first compound 0.000316 µM): 94.7%
- viability, T/C (second compound 0.3 µM, first compound 0.001 µM): 87.2%
- viability, T/C (second compound 0.3 µM, first compound 0.00316 µM): 53.6%
- viability, T/C (second compound 0.3 µM, first compound 0.01 µM): 14.6%
- viability, T/C [31]: 8.69%
- viability, T/C [32]: 6.51%

SMILES: C[C@@H](NC(=O)c1ncnc(N)c1Cl)c1ncc(C(=O)Nc2cc(C(F)(F)F)c(Cl)cn2)s1 + CCn1c(-c2cc(N3CCN(C)CC3)cnc2C(C)OC)c2c3cc(ccc31)-c1csc(n1)CC(NC(=O)C1CC1C)C(=O)N1CCCC(N1)C(=O)OCC(C)(C)C2
- IC50 (second compound 0.000949 µM): 1340 nM
- IC50 (second compound 0.003 µM): 1120 nM
- IC50 (second compound 0.00949 µM): 976 nM
- IC50 (second compound 0.03 µM): 806 nM
- IC50 (second compound 0.0949 µM): 687 nM
- IC50 (second compound 0.3 µM): 915 nM
- viability, T/C [1]: 105%
- viability, T/C [2]: 85.8%
- viability, T/C [3]: 77.9%
- viability, T/C [4]: 58.2%
- viability, T/C [5]: 30.6%
- viability, T/C [6]: 17.3%
- viability, T/C [7]: 102%
- viability, T/C [8]: 93.6%
- viability, T/C [9]: 72.5%
- viability, T/C [10]: 54.5%
- viability, T/C [11]: 29.7%
- viability, T/C [12]: 18.7%
- viability, T/C [13]: 106%
- viability, T/C [14]: 90.4%
- viability, T/C [15]: 81.1%
- viability, T/C [16]: 49%
- viability, T/C [17]: 23.2%
- viability, T/C [18]: 12.5%
- viability, T/C [19]: 103%
- viability, T/C [20]: 88%
- viability, T/C [21]: 87.4%
- viability, T/C [22]: 40%
- viability, T/C [23]: 23.1%
- viability, T/C [24]: 11.4%
- viability, T/C [25]: 102%
- viability, T/C [26]: 89.6%
- viability, T/C [27]: 79.3%
- viability, T/C [28]: 35%
- viability, T/C [29]: 20.2%
- viability, T/C [30]: 11.8%
- viability, T/C [31]: 104%
- viability, T/C [32]: 93.2%
- viability, T/C [33]: 69.9%
- viability, T/C [34]: 51.8%
- viability, T/C [35]: 23.2%
- viability, T/C [36]: 12.5%
